Here are results for 26 compounds from patent US20080280891A1, “Anti-cancer agents and uses thereof” (Locus Pharmaceuticals, Inc., priority 2006, published 2008).

Holding throughout (type): cell-based
Test [1] deals with Hela cells. Description: Cell viability assay (WST-1), Hela cells. The conditions noted are these: Homo sapiens, HeLa, WST-1, 48-72 hrs, 0.5% fetal calf serum. Here is the method:
Jurkat and Hela cells were cultured in RPMI and EMEM media, respectively, containing 0.5% fetal calf serum. Cells were plated in a volume of 100 μL in a 96 well format. Test compounds were included in the culture media at concentrations ranging from 1 nM to 10 μM for a period of 48-72 hrs. Cell viability was determined using the WST-1 calorimetric mitochondrial reduction assay. Briefly, 10 μL of WST-1 reagent was included in the culture well for a period of 1 to 4 hrs. The WST-1 reaction was read on a multiwell spectrophotometer as the difference in the absorbance between 450 nm and 600 nm (baseline). Absorbance was proportional to the number of living cells in the culture well. Concentration response curves and IC50 values were calculated using GraphPAD Prism graphing and curve fitting program.
Background: Formazan colour is commonly taken as a measure of viable cells.

Test [2] deals with NCI-H522 non small cell lung cancer cells. Description: Cell cycle assay (Example 164), G2/M block in NCI-H522 cells. Conditions: Homo sapiens; for activation at 0.1 µM: 24 h, flow cytometry (PI); for IC50: H522, footnotes * and ** of Table 4, read-out: IC50 (footnote mark in H522 G2/M Block). Here is the method:
(§1) The adherent MCF-7 breast cancer cells and NCI-H522 non small cell lung cancer cells were grown and maintained in EMEM cell culture media containing 10% fetal calf serum.
(§2) Cells were allowed to adhere for 24 hrs. After adherence, cell culture media was changed to that containing 0.5% FCS. Thirty minutes post-media change, test compounds were added at a concentration of either 1.0 or 0.1 μM (as specified in the Tables). Twenty-four hours after test agent addition, cells were analyzed for cell cycle status as described below.
(§3) Cell cycle status was analyzed by flow cytometry. Briefly, cells were collected and washed with FACs buffer (Pharmingen) and resuspended and fixed in 1 mL of 80% ethanol for 1 hr. Cells were washed with FACs buffer and resuspended in propidium iodide(PI)/RNase staining buffer (Pharmingen). PI is a fluorescent dye that labels nucleic acids such as DNA. The fluorescence within a cell (in the presence of PI) is proportional to the amount of DNA within a cell. The cell content of DNA is an indicator of status in the cell cycle. […] Cells in the S phase have DNA content that lies between these extremes.
(§4) For testing of cell cycle effects of test agents the percentage of cells within the G1 and G2/M phase were measured.
On the technique in general: Flow cytometry measures light scatter and fluorescence of single cells or particles in a stream.

For test [3], the system named is MCF-7 breast cancer cells. Briefly: Cell cycle assay (Example 164), G2/M block in MCF-7 cells. Conditions: for activation at 0.1 µM / IC50: Homo sapiens, MCF7; for activation at 0.1 µM / MCF-7 G2/M Block 1 μM: 24 h, flow cytometry (PI); for activation at 0.1 µM: Table 4; for IC50: MCF-7, footnotes * and ** of Table 4, read-out: IC50 (footnote mark in column MCF-7 G2/M Block); for MCF-7 G2/M Block 1 μM: Table 3. Here is the method: as §1, §2, §3, §4

`Oc1cc(Nc2cccnc2)cc(-c2ccc3c(c2)CCC3)c1` [3-Indan-5-yl-5-(pyridin-3-ylamino)-phenol] gave an IC50 in test [1] of 1000 to 30000 nM.
The same measure, in the same setting: with `Oc1cc(Nc2cccnc2)cc(-c2cccc(-c3ccccc3)c2)c1` [5-(Pyridin-3-ylamino)-[1,1′;3′,1″]terphenyl-3-ol] the figure was 1000 to 30000 nM.
In the case of `CC(=O)Nc1cc(-c2ccc(F)cc2F)cc(-c2cccc3[nH]ccc23)c1` [N-[5-(1H-Indol-4-yl)-2′,4′-difluoro-biphenyl-3-yl]-acetamide], the activation at 0.1 µM in test [2] (Table 4) and in test [3] was no less than 50% each time.
For `CS(=O)(=O)Nc1cc(-c2ccc(F)cc2F)cc(-c2cccc3[nH]ccc23)c1` [N-[5-(1H-Indol-4-yl)-2′,4′-difluoro-biphenyl-3-yl]-methanesulfonamide], the activation at 0.1 µM is no less than 50% in test [2] (Table 4) and less than 50% in test [3].
Take `CC(=O)Nc1cc(-c2cccc(C)c2)cc(-c2cccc3[nH]ccc23)c1` [N-[5-(1H-Indol-4-yl)-3′-methyl-biphenyl-3-yl]-acetamide]: the activation at 0.1 µM in test [2] (Table 4) and in test [3] was no less than 50% in each case.
On to `Cc1cccc(-c2cc(NS(C)(=O)=O)cc(-c3cccc4[nH]ccc34)c2)c1` [N-[5-(1H-Indol-4-yl)-3′-methyl-biphenyl-3-yl]-methanesulfonamide], for which the activation at 0.1 µM in test [2] (Table 4) and in test [3] was no less than 50% each time.
As to `CC(=O)Nc1cc(-c2ccc(C(F)(F)F)cc2)cc(-c2cccc3[nH]ccc23)c1` [N-[5-(1H-Indol-4-yl)-4′-trifluoromethyl-biphenyl-3-yl]-acetamide], the activation at 0.1 µM in test [2] (Table 4) and in test [3] was less than 50% throughout. Moreover, the IC50 in test [2] and in test [3] was 100 to 1000 nM each time.
Take `CS(=O)(=O)Nc1cc(-c2cccc([N+](=O)[O-])c2)cc(-c2cccc3[nH]ccc23)c1` [N-[5-(1H-indol-4-yl)-3′-nitro-biphenyl-3-yl]-methanesulfonamide]: the activation at 0.1 µM in test [2] (Table 4) and in test [3] was no less than 50% each time.
As for `CS(=O)(=O)Nc1cc(-c2cccc(C(F)(F)F)c2)cc(-c2cccc3[nH]ccc23)c1` [N-[5-(1H-indol-4-yl)-3′-trifluoromethyl-biphenyl-3-yl]-methanesulfonamide], the activation at 0.1 µM in test [2] (Table 4) and in test [3] was no less than 50% throughout.
`Nc1ccc(-c2cccc3[nH]ccc23)cc1C(=O)c1cccnc1` [[2-Amino-5-(1H-indol-4-yl)-phenyl]-pyridin-3-yl-methanone] had an activation at 0.1 µM in test [2] (Table 3) of no less than 50%. Further, the “MCF-7 G2/M Block 1 μM” value in test [3] is “Y (Y indicates a 50% or greater increase in the number of cells in the G2/M phase, as compared to control)”.
Regarding `COC(=O)Nc1cc(C(=O)c2ccnc(OC)c2)cc(-c2cccc3[nH]ccc23)c1` [[3-(1H-Indol-4-yl)-5-(2-methoxy-pyridine-4-carbonyl)-phenyl]-carbamic acid methyl ester], the activation at 0.1 µM in test [2] (Table 4) is less than 50%; in test [3], no less than 50%.
With `COC(=O)Nc1cc(C(=O)c2cc(C)nc(N3CCOCC3)c2)cc(-c2cccc3[nH]ccc23)c1` [[3-(1H-Indol-4-yl)-5-(2-methyl-6-morpholin-4-yl-pyridine-4-carbonyl)-phenyl]-carbamic acid methyl ester], the activation at 0.1 µM in test [2] (Table 4) and in test [3] was no less than 50% in each case.
Take `COC(=O)Nc1cc(C(=O)c2ccnc(C)c2)cc(-c2cccc3[nH]ccc23)c1` [[3-(1H-Indol-4-yl)-5-(2-methyl-pyridine-4-carbonyl)-phenyl]-carbamic acid methyl ester]: the activation at 0.1 µM in test [2] (Table 4) was no less than 50%; in test [3], less than 50%.
Consider `COC(=O)Nc1cc(C(=O)c2ccnc(N3CCOCC3)c2)cc(-c2cccc3[nH]ccc23)c1` [[3-(1H-Indol-4-yl)-5-(2-morpholin-4-yl-pyridine-4-carbonyl)-phenyl]-carbamic acid methyl ester], for which the activation at 0.1 µM in test [2] (Table 4) and in test [3] was no less than 50% in each case.
Take `COC(=O)Nc1cc(-c2ccc(OC)nc2)cc(-c2cccc3[nH]ccc23)c1` [[3-(1H-Indol-4-yl)-5-(6-methoxy-pyridin-3-yl)-phenyl]-carbamic acid methyl ester]: the activation at 0.1 µM in test [2] (Table 4) is no less than 50%; in test [3] it was less than 50%. For the same compound, the IC50 in test [3] is 100 to 1000 nM.
As for `COC(=O)Nc1cc(-c2cccnc2)cc(-c2cccc3[nH]ccc23)c1` [[3-(1H-Indol-4-yl)-5-pyridin-3-yl-phenyl]-carbamic acid methyl ester], the activation at 0.1 µM was no less than 50% in test [2] (Table 4) and less than 50% in test [3].
Take `COC(=O)Nc1cc(-c2ccncc2)cc(-c2cccc3[nH]ccc23)c1` [[3-(1H-Indol-4-yl)-5-pyridin-4-yl-phenyl]-carbamic acid methyl ester]: the activation at 0.1 µM in test [2] (Table 4) and in test [3] was no less than 50% each time.
For `COC(=O)Nc1cc(C(=O)c2cc(C)nc(C)c2)cc(-c2cccc3[nH]ccc23)c1` [[3-(2,6-Dimethyl-pyridine-4-carbonyl)-5-(1H-indol-4-yl)-phenyl]-carbamic acid methyl ester], the activation at 0.1 µM in test [2] (Table 4) and in test [3] was no less than 50% in each case.
In test [2] (Table 4), `COC(=O)Nc1cc(C(=O)c2ccnc(Cl)c2)cc(-c2cccc3[nH]ccc23)c1` [[3-(2-Chloro-pyridine-4-carbonyl)-5-(1H-indol-4-yl)-phenyl]-carbamic acid methyl ester] registered an activation at 0.1 µM of less than 50%. In test [3], the activation at 0.1 µM was less than 50% and the IC50 fell in the range of 500 to 5000 nM.
`COC(=O)Nc1cc(C(=O)c2cc(C)nc(C#N)c2)cc(-c2cccc3[nH]ccc23)c1` [[3-(2-Cyano-6-methyl-pyridine-4-carbonyl)-5-(1H-indol-4-yl)-phenyl]-carbamic acid methyl ester]: the activation at 0.1 µM in test [2] (Table 4) and in test [3] was no less than 50% throughout.
For `COC(=O)Nc1cc(C(=O)c2cc(C)nc(N(C)C)c2)cc(-c2cccc3[nH]ccc23)c1` [[3-(2-Dimethylamino-6-methyl-pyridine-4-carbonyl)-5-(1H-indol-4-yl)-phenyl]-carbamic acid methyl ester], the activation at 0.1 µM in test [2] (Table 4) and in test [3] was no less than 50% throughout.
Consider `COC(=O)Nc1cc(Nc2ccc(C#N)nc2)cc(-c2cccc3[nH]ccc23)c1` [[3-(6-Cyano-pyridin-3-ylamino)-5-(1H-indol-4-yl)-phenyl]-carbamic acid methyl ester], for which the activation at 0.1 µM in test [2] (Table 3) is less than 50%. Moreover, the “MCF-7 G2/M Block 1 μM” value in test [3] is given as “Y (Y indicates a 50% or greater increase in the number of cells in the G2/M phase, as compared to control)”.
For `COC(=O)Nc1cc(C(=O)c2cccnc2)cc(-c2ccc(F)c3[nH]ccc23)c1` [[3-(7-Fluoro-1H-indol-4-yl)-5-(pyridine-3-carbonyl)-phenyl]-carbamic acid methyl ester], the activation at 0.1 µM in test [2] (Table 4) and in test [3] was no less than 50% each time.
In the case of `COC(=O)Nc1cc(C(=O)c2ccnc(OC)c2)cc(-c2cccc3occc23)c1` [[3-Benzofuran-4-yl-5-(2-methoxy-pyridine-4-carbonyl)-phenyl]-carbamic acid methyl ester], the activation at 0.1 µM in test [2] (Table 4) and in test [3] was less than 50% in each case. Moreover, the IC50 in test [2] and in test [3] was 500 to 5000 nM each time.
As for `COC(=O)Nc1cc(-c2nc3ccccc3o2)cc(-c2cccc3[nH]ccc23)c1` [[3-Benzoxazol-2-yl-5-(1H-indol-4-yl)-phenyl]-carbamic acid methyl ester], the activation at 0.1 µM in test [2] (Table 4) and in test [3] was no less than 50% throughout.
With `CN(C)c1cc(C(=O)c2ccnc(N(C)C)c2)cc(-c2cccc3[nH]ccc23)c1` [[3-Dimethylamino-5-(1H-indol-4-yl)-phenyl]-(2-dimethylamino-pyridin-4-yl)-methanone], the activation at 0.1 µM is no less than 50% in test [2] (Table 4) and less than 50% in test [3].
